Usually ED50 stands for the dose at which the effect has come halfway, by size or by number of responders.

Read-outs that look alike come from different tables or passages of the source.

Data set [1] concerns stomachs. The data set is described as follows: gastric erosion test after oral dosing. The format is in vivo, rats. To be noted: for No. of Animals Showing Erosions: groups of 10 rats, 4 hour contact time. As for the experimental part:
b. Groups of 10 rats were starved overnight and then dosed orally with the test compound suspended in 0.7% methylcellulose. After a 4 hour contact time the animals were killed and the stomachs removed, inflated with 0.9% saline, cut open after 30 minutes and examined for erosions. The following results, expressed as the number of animals in each group showing damage, were obtained: […]

Data set [2] concerns rats. Kind of data set: toxicity observations during testing in rats. The format is in vivo. The settings on record: up to 100 mg/kg per day for 6 days.
In data set [3] the test system is carrageenin induced oedema. The data set is described as follows: carrageenin induced oedema test for anti-inflammatory activity. The format is in vivo. To be noted: Rattus norvegicus; per oral in rats; read-out: dose at which active (anti-inflammatory). As for the experimental part:
c. When tested on a conventional carrageenin induced oedema test foranti-inflammatory activity, the compound of Example 1 was classed as active at 10 mg/kg per oral in rats (as compared to about 5 mg/kg for tolmetin).
Background: In the carrageenan paw model, swelling and tenderness develop within hours.

In data set [4] the test system is phenylquinone induced writhing. Kind of data set: phenylquinone induced writhing test for analgesic activity. It is filed as in vivo. The settings on record: oral, mice; for ED50: Mus musculus. The text has this:
a. When tested on a conventional phenylquinone induced writhing test for analgesic activity, the compound of Example 1 and tolmetin produced the following ED50 values when administered orally to mice: […]
On the technique in general: An intraperitoneal irritant provokes the stretching counted in writhing tests.

Data set [5] has as its system cotton pellet induced granuloma. Kind of data set: cotton pellet induced granuloma test. It is filed as in vivo. The text has this: (§1) When tested on a conventional cotton pellet induced granuloma test the results shown hereafter were obtained. In these tests hydrocortisone (HC) was used as a positive control.
The conditions of data set [6]: J. Pharmacol. Exptl. Therap. 1973, 185, 127-138; cited from earlier work.
The conditions of data set [7]: in vivo.
Data set [8] in a line: overt toxic effects during testing (Demonstration 2). It is filed as in vivo.
From the text: as §1

Take `CC(=O)CCc1ccc(C(=O)c2ccc(C)cc2)n1C` [Example 1, 4-(1-Methyl-5-p-toluoyl-2-pyrryl)butan-2-one]: the “No. of Animals Showing Erosions” value in data set [1] (30 mg/kg oral) is 0 No. of Animals; in data set [1] (90 mg/kg oral), 1 No. of Animals; in data set [1] (270 mg/kg oral), 1 No. of Animals. Also, the drug-induced lethalities entry in data set [2] is recorded as “No drug-induced lethalities have been observed”. For the same molecule, the minimal effective dose in data set [3] was 10 mg/kg. Also, the 50% effective dose (ED50) was 6.7 mg/kg in data set [4] (Test A, read-out: ED50, Test A) and 5.3 mg/kg in data set [4] (Test B, read-out: ED50, Test B). Moreover, in data set [4] (from ED50 values), the “analgesic potency relative to tolmetin” value is recorded as “about half as potent as tolmetin”.
As to `C[C@]12CCC(=O)C=C1CC[C@@H]1[C@@H]2[C@@H](O)C[C@@]2(C)[C@H]1CC[C@]2(O)C(=O)CO` [HC, hydrocortisone, reference compound], in data set [5] (10 mg/kg), the “Inhibition (cotton pellet granuloma)” value was determined as 43%.
Take `Cc1ccc(C(=O)c2ccc(CC(=O)O)n2C)cc1` [Tolmetin]: the results for the “No. of Animals Showing Erosions” value in data set [1] (10 mg/kg oral), in data set [1] (30 mg/kg oral) and in data set [1] (90 mg/kg oral) were 2 No. of Animals, 6 No. of Animals and 10 No. of Animals, respectively. In data set [1] (oral, rats, "probably at least"), the “gastric irritancy relative to the compound of Example 1” value was “at least 10 times”. For the same molecule, the anti-inflammatory activity result in data set [6] is recorded as “possess anti-inflammatory activity”. In data set [3], the minimal effective dose is roughly 5 mg/kg. Further, the gastric irritancy result in data set [7] is reported as “causes gastric irritancy in test animals at doses not greatly exceeding the therapeutic dose”. Besides, the 50% effective dose (ED50) in data set [4] (Test A, read-out: ED50, Test A) stood at 4.3 mg/kg; in data set [4] (Test B, read-out: ED50, Test B) it was 2.3 mg/kg.
For the molecule `CC(=O)CCc1ccc(C(=O)c2cccs2)n1C` [Example 4, 4-(1-Methyl-5-thien-2'-oyl-2-pyrryl)butan-2-one], the drug-induced lethalities result in data set [8] (during testing) is listed as “no drug-induced lethalities were observed”. In data set [8] (in vivo), the body weight gain result is on record as “no reduction in body weight gain was observed”, the overt toxic effects result is “not found to exhibit any overt toxic effects” and the thymus weight entry is reported as “no change in thymus weight was observed”. Also, in data set [5] (10 mg/kg), the “Inhibition (cotton pellet granuloma)” value amounted to 24%.
Turning to `Cc1ccc(C(=O)c2ccc(CCC3(C)OCCO3)n2C)cc1` [Example 7, 2-Methyl-2-[2-(1-methyl-5-p-toluoyl-2-pyrryl)ethyl]-1,3-dioxolane], in data set [8] (during testing), the drug-induced lethalities entry was “no drug-induced lethalities were observed” and the overt toxic effects result is recorded as “not found to exhibit any overt toxic effects”. Besides, in data set [8] (in vivo), the body weight gain entry is listed as “no reduction in body weight gain was observed” and the thymus weight entry is on record as “no change in thymus weight was observed”. Also, the “Inhibition (cotton pellet granuloma)” value in data set [5] (50 mg/kg) is 43%.
As for `CC(=O)OC(C)CCc1ccc(C(=O)c2ccc(C)cc2)n1C` (centres unmarked) [Example 6, 2-Acetoxy-4-(1-methyl-5-p-toluoyl-2-pyrryl)butane], in data set [8] (during testing), the drug-induced lethalities result was “no drug-induced lethalities were observed” and the overt toxic effects entry is “not found to exhibit any overt toxic effects”. Besides, in data set [8] (in vivo), the body weight gain result is on record as “no reduction in body weight gain was observed” and the thymus weight result is recorded as “no change in thymus weight was observed”. Further, in data set [5] (50 mg/kg), the “Inhibition (cotton pellet granuloma)” value was determined as 34%.
On to `CC(=O)CCc1ccc(C(=O)c2ccc(Cl)cc2)n1C` [Example 3, 4-(1-Methyl-5-p-chlorobenzoyl-2-pyrryl)butan-2-one], for which, in data set [8] (during testing), the drug-induced lethalities result is reported as “no drug-induced lethalities were observed” and the overt toxic effects result is on record as “not found to exhibit any overt toxic effects”. Also, in data set [8] (in vivo), the body weight gain result is recorded as “no reduction in body weight gain was observed” and the thymus weight result is given as “no change in thymus weight was observed”. Besides, the “Inhibition (cotton pellet granuloma)” value in data set [5] (10 mg/kg) turned out to be 42%.
